Reference: patent US20240067662A1, “KRAS INHIBITORS” (Bristol-Myers Squibb Company, priority 2022, published 2024)

Target: GMPPNP-loaded KRAS G12C (Homo sapiens, UniProt P01116, G12C)
Test: KRAS G12C RAF Disruption Assay (HTRF)
Format: biochemical
Details: recombinant GMPPNP-loaded KRAS G12C (5 nM), 20 min with compound; GST-RAF1 RBD (9 nM); HTRF signal; read-out: KRASG12C RAF Disruption Assay (IC50)
Method in brief: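 GMPPNP-loaded KRAS G12C (5 nM) was preincubated with compound for 20 min at room temperature in Tris pH 7.5 buffer with NaCl, MgCl2, DTT and BSA. GST-RAF1 RBD (9 nM) was added for 20 min, then SA-Tb (0.25 nM) for 3 h. IC50 was fitted from the HTRF 520/495 ratio.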

Sequence of GMPPNP-loaded KRAS G12C (P01116 1-188 isoform P01116-2 G12C): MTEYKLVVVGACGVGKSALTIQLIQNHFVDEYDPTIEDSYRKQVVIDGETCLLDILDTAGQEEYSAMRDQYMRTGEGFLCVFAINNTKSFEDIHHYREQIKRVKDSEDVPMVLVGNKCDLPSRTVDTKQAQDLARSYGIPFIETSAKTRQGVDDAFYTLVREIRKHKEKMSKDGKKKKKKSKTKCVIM

Row | Compound | IC50 [nM]
1 | C#Cc1cccc2cccc(-c3ncc4c(N(C)[C@@H]5CCN(C(=O)/C(F)=C/c6nccs6)C5)nc(OC[C@@]56CCCN5C[C@H](F)C6)nc4c3F)c12 [Compound 116, (Z)-1-((R)-3-((7-(8-ethynylnaphthalen-1-yl)-8-fluoro-2-(((2R, 7aS)-2-fluorotetrahydro-1H-pyrrolizin-7a(5H)-yl)methoxy)pyrido[4,3-d]pyrimidin-4-yl)(methyl)amino)pyrrolidin-1-yl)-2-fluoro-3-(thiazol-2-yl)prop-2-en-1-one] | 27
2 | C#Cc1c(F)ccc2cc(O)cc(-c3ncc4c(N5CCN(C(=O)/C(F)=C/c6nccs6)CC5)nc(OC[C@]56CCC[C@H]5N(C)CCC6)nc4c3F)c12 [Example 58, (Z)-1-(4-(7-(8-ethynyl-7-fluoro-3-hydroxynaphthalen-1-yl)-8-fluoro-2-(((4aS, 7aR)-1-methyloctahydro-4aH-cyclopenta[b]pyridin-4a-yl)methoxy)pyrido[4,3-d]pyrimidin-4-yl)piperazin-1-yl)-2-fluoro-3-(thiazol-2-yl)prop-2-en-1-one] | 2
3 | N#CC[C@H]1CN(c2nc(OC[C@@]34CCCN3C[C@H](F)C4)nc3c(F)c(-c4csc5ccccc45)ncc23)CCN1C(=O)/C(F)=C/c1ccccn1 [Example 35, 2-((S)-4-(7-(benzo[b]thiophen-3-yl)-8-fluoro-2-(((2R, 7aS)-2-fluorotetrahydro-1H-pyrrolizin-7a(5H)-yl)methoxy)pyrido[4,3-d]pyrimidin-4-yl)-1-((Z)-2-fluoro-3-(pyridin-2-yl)acryloyl)piperazin-2-yl)acetonitrile] | 430
4 | C#Cc1c(F)ccc2cc(O)cc(-c3ncc4c(N5CCN(C(=O)/C(F)=C/c6ncccn6)C[C@@H]5C)nc(OC[C@@]56CCCN5C[C@H](F)C6)nc4c3F)c12 [Example 66, (Z)-1-((S)-4-(7-(8-ethynyl-7-fluoro-3-hydroxynaphthalen-1-yl)-8-fluoro-2-(((2R, 7aS)-2-fluorotetrahydro-1H-pyrrolizin-7a(5H)-yl)methoxy)pyrido[4,3-d]pyrimidin-4-yl)-3-methylpiperazin-1-yl)-2-fluoro-3-(pyrimidin-2-yl)prop-2-en-1-one] | < 2
5 | C#Cc1c(F)ccc2cc(O)cc(-c3ncc4c(N5CCN(C(=O)/C(F)=C/c6ccccn6)CC5)nc(OC[C@@H]5CCCN5CCCN=[N+]=[N-])nc4c3F)c12 [Compound 111, (S,Z)-1-(4-(2-((1-(3-azidopropyl)pyrrolidin-2-yl)methoxy)-7-(8-ethynyl-7-fluoro-3-hydroxynaphthalen-1-yl)-8-fluoropyrido[4,3-d]pyrimidin-4-yl)piperazin-1-yl)-2-fluoro-3-(pyridin-2-yl)prop-2-en-1-one] | 11
6 | C#Cc1c(F)ccc2cc(O)cc(-c3ncc4c(N5CCN(C(=O)/C(F)=C/c6nccs6)C[C@@H]5C)nc(OC[C@@]56CCCN5C[C@H](F)C6)nc4c3F)c12 [Example 64, (Z)-1-((S)-4-(7-(8-ethynyl-7-fluoro-3-hydroxynaphthalen-1-yl)-8-fluoro-2-(((2R, 7aS)-2-fluorotetrahydro-1H-pyrrolizin-7a(5H)-yl)methoxy)pyrido[4,3-d]pyrimidin-4-yl)-3-methylpiperazin-1-yl)-2-fluoro-3-(thiazol-2-yl)prop-2-en-1-one] | 7
7 | C#Cc1cccc2cccc(-c3ncc4c(N(C)C5CCN(C(=O)/C(F)=C/c6nccs6)C5C)nc(OC[C@@]56CCCN5C[C@H](F)C6)nc4c3F)c12 (single isomer, unassigned) [Example 73 cis isomer 1] | 110
8 | C#Cc1cccc2cccc(-c3ncc4c(N5CCN(C(=O)/C(F)=C/c6ccccn6)CC5)nc(OC[C@@]56CCCN5C[C@H](F)C6)nc4c3F)c12 [Example 29, (Z)-1-(4-(7-(8-ethynylnaphthalen-1-yl)-8-fluoro-2-(((2R, 7aS)-2-fluorotetrahydro-1H-pyrrolizin-7a(5H)-yl)methoxy)pyrido[4,3-d]pyrimidin-4-yl)piperazin-1-yl)-2-fluoro-3-(pyridin-2-yl)prop-2-en-1-one] | 100
9 | C#Cc1c(F)ccc2cc(O)cc(-c3ncc4c(N5CCN(C(=O)/C(F)=C/c6ncco6)CC5)nc(OC[C@@]56CCCN5C[C@H](F)C6)nc4c3F)c12 [Example 54, (Z)-1-(4-(7-(8-ethynyl-7-fluoro-3-hydroxynaphthalen-1-yl)-8-fluoro-2-(((2R, 7aS)-2-fluorotetrahydro-1H-pyrrolizin-7a(5H)-yl)methoxy)pyrido[4,3-d]pyrimidin-4-yl)piperazin-1-yl)-2-fluoro-3-(oxazol-2-yl)prop-2-en-1-one] | 5
10 | Cc1ccc2[nH]ncc2c1-c1ncc2c(N3CCN(C(=O)/C(F)=C/c4ccccn4)CC3)nc(OC[C@@]34CCCN3C[C@H](F)C4)nc2c1F [Example 30, (Z)-2-fluoro-1-(4-(8-fluoro-2-(((2R, 7aS)-2-fluorotetrahydro-1H-pyrrolizin-7a(5H)-yl)methoxy)-7-(5-methyl-1H-indazol-4-yl)pyrido[4,3-d]pyrimidin-4-yl)piperazin-1-yl)-3-(pyridin-2-yl)prop-2-en-1-one] | 470

Continued by falling IC50, values first:

Row | IC50 [nM] | Compound
11 | 760 | N#CC[C@H]1CN(c2nc(OC[C@@]34CCCN3C[C@H](F)C4)nc3c(F)c(-c4cc(F)ccc4F)ncc23)CCN1C(=O)/C(F)=C/c1nccs1 [Example 41, 2-((S)-4-(7-(2,5-difluorophenyl)-8-fluoro-2-(((2R, 7aS)-2-fluorotetrahydro-1H-pyrrolizin-7a(5H)-yl)methoxy)pyrido[4,3-d]pyrimidin-4-yl)-1-((Z)-2-fluoro-3-(thiazol-2-yl)acryloyl)piperazin-2-yl)acetonitrile]
12 | 550 | C#Cc1ccc(F)c2cccc(-c3ncc4c(N5CCN(C(=O)/C(F)=C/c6ncccn6)CC5)nc(OC[C@@]56CCCN5C[C@H](F)C6)nc4c3F)c12 [Compound 97, (Z)-1-(4-(7-(8-ethynyl-5-fluoronaphthalen-1-yl)-8-fluoro-2-(((2R, 7aS)-2-fluorotetrahydro-1H-pyrrolizin-7a(5H)-yl)methoxy)pyrido[4,3-d]pyrimidin-4-yl)piperazin-1-yl)-2-fluoro-3-(pyrimidin-2-yl)prop-2-en-1-one]
13 | 450 | C#Cc1c(F)ccc2cc(O)cc(-c3ncc4c(N5CC6CCC(C5)N6C(=O)/C(F)=C/c5nc(Br)cs5)nc(OC[C@@]56CCCN5C[C@H](F)C6)nc4c3F)c12 [Compound 11, (Z)-3-(4-bromothiazol-2-yl)-1-((JR, 5S)-3-(7-(8-ethynyl-7-fluoro-3-hydroxynaphthalen-1-yl)-8-fluoro-2-(((2R, 7aS)-2-fluorotetrahydro-1H-pyrrolizin-7a(5H)-yl)methoxy)pyrido[4,3-d]pyrimidin-4-yl)-3,8-diazabicyclo[3.2.1]octan-8-yl)-2-fluoroprop-2-en-1-one]
14 | 5 | CN(c1nc(OC[C@@]23CCCN2C[C@H](F)C3)nc2c(F)c(-c3c(F)cc(F)c4sc(N)nc34)ncc12)[C@@H]1CCN(C(=O)/C(F)=C/c2ccccn2)C1 [Compound 119, (Z)-1-((3R)-3-((7-(2-amino-5,7-difluorobenzo[d]thiazol-4-yl)-8-fluoro-2-(((7aS)-2-fluorotetrahydro-1H-pyrrolizin-7a(5H)-yl)methoxy)pyrido[4,3-d]pyrimidin-4-yl)(methyl)amino)pyrrolidin-1-yl)-2-fluoro-3-(pyridin-2-yl)prop-2-en-1-one]
15 | 2.5 | C#Cc1cccc2cccc(-c3ncc4c(N(C)C5CCN(C(=O)/C(F)=C/c6ccccn6)C5C)nc(OC[C@@]56CCCN5C[C@H](F)C6)nc4c3F)c12 (single isomer, unassigned) [Example 74 trans isomer 1]
